According to ChEMBL document CHEMBL1135253, “Formation of thomasidioic acid from dehydrosinapinic acid dilactone under neutral conditions, and a remaining inhibitory activity against peroxynitrite-mediated protein nitration” (Bioorg Med Chem Lett, 2002):

Experiments:
[1] = Inhibitory activity of compound was tested against peroxinitrite in collagen type I with concentration 50 uM of each sample was treated with 1.0 mM peroxynitrite
[2] = Inhibitory activity of compound was tested against peroxinitrite of collagen type I with concentration 50 uM of each sample was treated with 1.0 mM peroxynitrite
[3] = Inhibitory activity of compound was tested against peroxinitrite in collagen type I at concentration 100 uM of each sample was treated with 1.0 mM peroxynitrite

Row | Activity [1] | Activity [2] | Activity [3] | SMILES
1 | 0.25 | – | – | COc1cc(/C=C(C(=O)O)\C(=C/c2cc(OC)c(O)c(OC)c2)C(=O)O)cc(OC)c1O
2 | – | 0.7 | – | COc1cc([C@H]2c3c(cc(OC)c(O)c3OC)C=C(C(=O)O)[C@@H]2C(=O)O)cc(OC)c1O
3 | 1 | – | 0.3 | COc1cc(/C=C/C(=O)O)cc(OC)c1O
